The NIST ThermoML archive (doi:10.1021/je700398k)

Conditions: Liquid

ClCC1CO1 (stereo unspecified) [1-chloro-2,3-epoxypropane]
Conditions | vapor or sublimation pressure [kPa]
315.67 K | 5.916
316.53 K | 6.183
318.81 K | 6.915
321.9 K | 8.015
324.03 K | 8.859
327.03 K | 10.18
330.21 K | 11.74
334.22 K | 14.01
334.77 K | 14.32
337.79 K | 16.3
339.71 K | 17.66
343.98 K | 21.05
345.99 K | 22.82
347.15 K | 23.9
350.87 K | 27.61
352.3 K | 29.16
354.46 K | 31.66
357.56 K | 35.49
359.92 K | 38.7
363.28 K | 43.68
367.42 K | 50.42
371.36 K | 57.63
375.06 K | 65.2
388.29 K | 98.82

CN1CCCCCC1=O [1-methylazacycloheptan-2-one]
Conditions | vapor or sublimation pressure [kPa]
402.95 K | 4.019
405.13 K | 4.39
411.63 K | 5.651
415.53 K | 6.531
420.7 K | 7.906
424.29 K | 8.986
428.38 K | 10.38
430.35 K | 11.12
434.66 K | 12.84
436.35 K | 13.6
443.09 K | 16.89
450.68 K | 21.39
458.3 K | 26.82
462.79 K | 30.5
468.95 K | 36.27
479.21 K | 47.69
510.6 K | 101.4

CN1CCCC1=O [N-methylpyrrolidone]
Conditions | vapor or sublimation pressure [kPa]
380.73 K | 4.742
383.12 K | 5.24
386.38 K | 5.98
387.92 K | 6.361
389.88 K | 6.862
393.04 K | 7.775
400.46 K | 10.29
403.85 K | 11.62
406.68 K | 12.87
408.96 K | 13.96
411.42 K | 15.22
413.77 K | 16.5
416.81 K | 18.28
420.94 K | 20.97
424.65 K | 23.65
427.56 K | 25.96
432.29 K | 30.08
435.85 K | 33.54
439.12 K | 36.99
441.74 K | 39.96
444.04 K | 42.73
446.64 K | 46.02
451.08 K | 52.18
457.46 K | 62.11
475.72 K | 99.4
